Reference: ChEMBL document CHEMBL4145553, “Design, synthesis, and biological evaluation of novel amide and hydrazide based thioether analogs targeting Histone deacteylase (HDAC) enzymes” (Eur J Med Chem, 2018)

Columns and labels:
NCI-H322M = assay: Growth inhibition of human NCI-H322M cells at 10 uM incubated for 48 hrs by sulforhodamine B assay relative to control; format: functional; settings: values are per cent of control
UACC-62 = assay: Growth of human UACC62 cells at 10 uM incubated for 48 hrs by sulforhodamine B assay relative to control; settings: UACC-62, 48 h
RPMI-8226 = assay: Growth of human RPMI8226 cells at 10 uM incubated for 48 hrs by sulforhodamine B assay relative to control; settings: RPMI-8226, 48 h
786-0 = assay: Growth inhibition of human 786-0 cells at 10 uM incubated for 48 hrs by sulforhodamine B assay relative to control; format: functional; settings: 786-0, 48 h, values are per cent of control
OVCAR-8 = assay: Growth of human OVCAR8 cells at 10 uM incubated for 48 hrs by sulforhodamine B assay relative to control; settings: OVCAR-8, 48 h
CAKI-1 = assay: Growth inhibition of human Caki1 cells at 10 uM incubated for 48 hrs by sulforhodamine B assay relative to control; format: functional; settings: CAKI-1, 48 h, values are per cent of control
PC-3 = assay: Growth inhibition of human PC3 cells at 10 uM incubated for 48 hrs by sulforhodamine B assay relative to control; format: functional; settings: PC-3, 48 h, values are per cent of control
A498 = assay: Growth inhibition of human A498 cells at 10 uM incubated for 48 hrs by sulforhodamine B assay relative to control; format: functional; settings: A498, 48 h, values are per cent of control
UACC-257 = assay: Growth of human UACC257 cells at 10 uM incubated for 48 hrs by sulforhodamine B assay relative to control; settings: UACC-257, 48 h
U-251 = assay: Growth of human U251 cells at 10 uM incubated for 48 hrs by sulforhodamine B assay relative to control; settings: U-251, 48 h
SK-MEL-5 = assay: Growth of human SK-MEL-5 cells at 10 uM incubated for 48 hrs by sulforhodamine B assay relative to control; settings: SK-MEL-5, 48 h
HCT-116 = assay: Growth of human HCT116 cells at 10 uM incubated for 48 hrs by sulforhodamine B assay relative to control; settings: HCT-116, 48 h
SF-539 = assay: Growth of human SF539 cells at 10 uM incubated for 48 hrs by sulforhodamine B assay relative to control; settings: SF-539, 48 h
CCRF-CEM = assay: Growth of human CCRF-CEM cells at 10 uM incubated for 48 hrs by sulforhodamine B assay relative to control
T47D = assay: Growth inhibition of human T47D cells at 10 uM incubated for 48 hrs by sulforhodamine B assay relative to control; format: functional; settings: values are per cent of control
NCI-H226 = assay: Growth inhibition of human NCI-H226 cells at 10 uM incubated for 48 hrs by sulforhodamine B assay relative to control; format: functional; settings: NCI-H226, 48 h, values are per cent of control
SNB-75 = assay: Growth of human SNB75 cells at 10 uM incubated for 48 hrs by sulforhodamine B assay relative to control; settings: SNB-75, 48 h
LOX IMVI = assay: Growth of human LOXIMVI cells at 10 uM incubated for 48 hrs by sulforhodamine B assay relative to control
OVCAR-4 = assay: Growth of human OVCAR4 cells at 10 uM incubated for 48 hrs by sulforhodamine B assay relative to control; settings: OVCAR-4, 48 h
Malme-3M = assay: Growth of human MALME-3M cells at 10 uM incubated for 48 hrs by sulforhodamine B assay relative to control
NCI-H460 = assay: Growth inhibition of human NCI-H460 cells at 10 uM incubated for 48 hrs by sulforhodamine B assay relative to control; format: functional; settings: NCI-H460, 48 h, values are per cent of control
RXF 393 = assay: Growth inhibition of human RXF393 cells at 10 uM incubated for 48 hrs by sulforhodamine B assay relative to control; format: functional; settings: RXF 393, 48 h, values are per cent of control
MCF7 = assay: Growth inhibition of human MCF7 cells at 10 uM incubated for 48 hrs by sulforhodamine B assay relative to control; format: functional; settings: MCF7, 48 h, values are per cent of control
HOP-62 = assay: Growth of human HOP62 cells at 10 uM incubated for 48 hrs by sulforhodamine B assay relative to control; settings: HOP-62, 48 h
KM12 = assay: Growth of human KM12 cells at 10 uM incubated for 48 hrs by sulforhodamine B assay relative to control; settings: KM12, 48 h
SK-MEL-2 = assay: Growth of human SK-MEL-2 cells at 10 uM incubated for 48 hrs by sulforhodamine B assay relative to control; settings: SK-MEL-2, 48 h
SK-OV-3 = assay: Growth inhibition of human SKOV3 cells at 10 uM incubated for 48 hrs by sulforhodamine B assay relative to control; format: functional; settings: SK-OV-3, 48 h, values are per cent of control
EKVX = assay: Growth of human EKVX cells at 10 uM incubated for 48 hrs by sulforhodamine B assay relative to control
Hs-578T = assay: Growth inhibition of human Hs 578T cells at 10 uM incubated for 48 hrs by sulforhodamine B assay relative to control; format: functional; settings: values are per cent of control
NCI/ADR-RES = assay: Growth inhibition of human NCI/ADR-RES cells at 10 uM incubated for 48 hrs by sulforhodamine B assay relative to control; format: functional; settings: values are per cent of control
HL-60(TB) = assay: Growth inhibition of human HL-60(TB) cells at 10 uM incubated for 48 hrs by sulforhodamine B assay relative to control; format: functional; settings: HL-60, 48 h, values are per cent of control
HCC 2998 = assay: Growth of human HCC2998 cells at 10 uM incubated for 48 hrs by sulforhodamine B assay relative to control; settings: HCC 2998, 48 h
SNB-19 = assay: Growth of human SNB19 cells at 10 uM incubated for 48 hrs by sulforhodamine B assay relative to control; settings: SNB-19, 48 h
MDA-MB-435 = assay: Growth of human MDA-MB-435 cells at 10 uM incubated for 48 hrs by sulforhodamine B assay relative to control; settings: MDA-MB-435, 48 h

| Structure (SMILES) | growth, % of control at 10 µM (NCI-H322M) [%] | growth, % of control at 10 µM (UACC-62) [%] | growth, % of control at 10 µM (RPMI-8226) [%] | growth, % of control at 10 µM (786-0) [%] | growth, % of control at 10 µM (OVCAR-8) [%] | growth, % of control at 10 µM (CAKI-1) [%] | growth, % of control at 10 µM (PC-3) [%] | growth, % of control at 10 µM (A498) [%] | growth, % of control at 10 µM (UACC-257) [%] | growth, % of control at 10 µM (U-251) [%] | growth, % of control at 10 µM (SK-MEL-5) [%] | growth, % of control at 10 µM (HCT-116) [%] | growth, % of control at 10 µM (SF-539) [%] | growth, % of control at 10 µM (CCRF-CEM) [%] | growth, % of control at 10 µM (T47D) [%] | growth, % of control at 10 µM (NCI-H226) [%] | growth, % of control at 10 µM (SNB-75) [%] | growth, % of control at 10 µM (LOX IMVI) [%] | growth, % of control at 10 µM (OVCAR-4) [%] | growth, % of control at 10 µM (Malme-3M) [%] | further results |
| --- | --- | --- | --- | --- | --- | --- | --- | --- | --- | --- | --- | --- | --- | --- | --- | --- | --- | --- | --- | --- | --- |
| CCS/C(Nc1ccccc1)=C(\C#N)C(=O)N/N=C\c1ccco1 | 101 | 97.7 | 103 | 100 | 92.1 | 95.9 | 99.4 | 77.3 | 84.4 | 94 | 101 | 95.5 | 98.7 | 91.2 | 78 | 95.2 | 89.1 | 109 | 106 | 95.9 | growth, % of control at 10 µM (NCI-H460): 110%; growth, % of control at 10 µM (RXF 393): 104%; growth, % of control at 10 µM (MCF7): 66.8%; growth, % of control at 10 µM (HOP-62): 97.4%; growth, % of control at 10 µM (KM12): 104%; growth, % of control at 10 µM (SK-MEL-2): 94.3%; growth, % of control at 10 µM (SK-OV-3): 99.3%; growth, % of control at 10 µM (EKVX): 101%; growth, % of control at 10 µM (Hs-578T): 101%; growth, % of control at 10 µM (NCI/ADR-RES): 101%; growth, % of control at 10 µM (HL-60(TB)): 84.2%; growth, % of control at 10 µM (HCC 2998): 107%; growth, % of control at 10 µM (SNB-19): 101%; growth, % of control at 10 µM (MDA-MB-435): 105% |
| CC(C)(C)S/C(Nc1ccccc1)=C(\C#N)C(=O)N/N=C\c1ccco1 | 102 | 93.5 | 106 | 102 | 94.9 | 95.8 | 90.7 | 87 | 83 | 94.7 | 96.9 | 82.9 | 94.3 | 92.2 | 91.4 | 92 | 82.2 | 99.6 | 104 | 104 | growth, % of control at 10 µM (NCI-H460): 102%; growth, % of control at 10 µM (RXF 393): 105%; growth, % of control at 10 µM (MCF7): 92.3%; growth, % of control at 10 µM (HOP-62): 93.8%; growth, % of control at 10 µM (KM12): 104%; growth, % of control at 10 µM (SK-MEL-2): 103%; growth, % of control at 10 µM (SK-OV-3): 89.3%; growth, % of control at 10 µM (EKVX): 91.9%; growth, % of control at 10 µM (Hs-578T): 92.5%; growth, % of control at 10 µM (NCI/ADR-RES): 100%; growth, % of control at 10 µM (HL-60(TB)): 63.6%; growth, % of control at 10 µM (HCC 2998): 107%; growth, % of control at 10 µM (SNB-19): 96.9%; growth, % of control at 10 µM (MDA-MB-435): 101% |
| CC(C)(C)S/C(Nc1ccccc1)=C(\C#N)C(=O)Nc1ccccc1 | 101 | 94.9 | 95.3 | 94.3 | 99.8 | 95 | 95.2 | 92.9 | 92.9 | 92 | 102 | 95.2 | 100 | 86.4 | 85.2 | 88.9 | 96.5 | 98.8 | 100 | 97.3 | growth, % of control at 10 µM (NCI-H460): 103%; growth, % of control at 10 µM (RXF 393): 101%; growth, % of control at 10 µM (MCF7): 100%; growth, % of control at 10 µM (HOP-62): 90.6%; growth, % of control at 10 µM (KM12): 114%; growth, % of control at 10 µM (SK-MEL-2): 94%; growth, % of control at 10 µM (SK-OV-3): 105%; growth, % of control at 10 µM (EKVX): 101%; growth, % of control at 10 µM (Hs-578T): 99.6%; growth, % of control at 10 µM (NCI/ADR-RES): 100%; growth, % of control at 10 µM (HL-60(TB)): 82.3%; growth, % of control at 10 µM (HCC 2998): 106%; growth, % of control at 10 µM (SNB-19): 92.5%; growth, % of control at 10 µM (MDA-MB-435): 104% |
| CCS/C(Nc1ccccc1)=C(\C#N)C(=O)Nc1ccc(OC)cc1 | 51.6 | 27.2 | 25.2 | 39.5 | 31.2 | 40.4 | 47.9 | 22.7 | 58.4 | 16.6 | 17.8 | 14.3 | 29.1 | 8.29 | 25.4 | 57.9 | 18.2 | 36.6 | 66.7 | 55.5 | growth, % of control at 10 µM (NCI-H460): 10.1%; growth, % of control at 10 µM (RXF 393): 39.5%; growth, % of control at 10 µM (MCF7): 19%; growth, % of control at 10 µM (HOP-62): 34.2%; growth, % of control at 10 µM (KM12): 31%; growth, % of control at 10 µM (SK-MEL-2): -0.34%; growth, % of control at 10 µM (SK-OV-3): 22.4%; growth, % of control at 10 µM (EKVX): 52.4%; growth, % of control at 10 µM (Hs-578T): 27.4%; growth, % of control at 10 µM (NCI/ADR-RES): -0.67%; growth, % of control at 10 µM (HL-60(TB)): -15.6%; growth, % of control at 10 µM (HCC 2998): 55.2%; growth, % of control at 10 µM (SNB-19): 23.1%; growth, % of control at 10 µM (MDA-MB-435): -47.9% |
